Here are results for 21 molecules from patent US8937091B2 (Japan Science and Technology Agency, priority 2009, dated 2015).

Assay [1] concerns SOCE (store operated calcium entry) in CHO cells. The experiment in a line: Assay of SOCE (store operated calcium entry)-inhibiting action. The class given is cell-based, Chinese hamster. The note with it: for inhibition at 10 µM: test compound 10 μmol; for inhibition at 10 µM / inhibition at 30 µM / inhibition at 100 µM: read-out: SOCE level (percentage of inhibition); for inhibition at 30 µM: test compound 30 μmol. In a few lines: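 CHO cells in calcium-free BSS received compound, then 1 μM thapsigargin 2 min later to deplete stores; after 9 min, 2 mM calcium chloride (final) added. Percent inhibition of the rise in intracellular calcium determined at various compound concentrations.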

Assay [2] deals with IICR (IP3 induced calcium release) in CHO cells. The assay can be described thus: Assay of IICR (IP3 induced calcium release)-inhibiting action. Type of assay: cell-based, Chinese hamster. The settings on record: for inhibition at 10 µM: test compound 10 μmol. Summed up:
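Inhibition (%) of the intracellular calcium increase triggered by 10 μM ATP, measured in CHO cells in BSS with calcium. Compound given 1 min after the buffer exchange and 2 min before ATP; values reported per compound concentration.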

Where [3] appears, read: Cricetulus griseus, CHO, CHO cells, thapsigargin.
[4] abbreviates: Cricetulus griseus, CHO, test compound 100 μmol, CHO cells, thapsigargin.
Where [5] appears, read: Cricetulus griseus, CHO, CHO cells, 10 μM ATP, read-out: IICR level (percentage of inhibition).
The mark [6] stands for this setting: Cricetulus griseus, CHO, test compound 30 μmol, CHO cells, 10 μM ATP, read-out: IICR level (percentage of inhibition).
[7] abbreviates: Cricetulus griseus, CHO, test compound 100 μmol, CHO cells, 10 μM ATP, read-out: IICR level (percentage of inhibition).
Where [8] appears, read: Cricetulus griseus, CHO, Table 1.

As to `CCN(CCC(=O)c1ccco1)Cc1ccccc1` [Example 142, 2-(N-benzylethyl)aminoethyl-2-furylketone], the inhibition at 10 µM came out at 0% in assay [1] (setting [3]) and 40% in assay [2] (setting [5]). Further, the inhibition at 30 µM worked out at 0% in assay [1] (setting [3]) and 50% in assay [2] (setting [6]). In addition, the inhibition at 100 µM came to 0% in assay [1] (setting [4]) and 80% in assay [2] (setting [7]).
As to `O=C(CCN(CCO)CCO)c1nccs1` [Example 143, 2-(N,N-dihydroxyethyl)aminoethyl-2-thiazolylketone], the inhibition at 10 µM in assay [1] (setting [3]) and in assay [2] (setting [5]) was 0% in each case. Moreover, the inhibition at 30 µM is 0% in assay [1] (setting [3]) and 50% in assay [2] (setting [6]). The inhibition at 100 µM in assay [1] (setting [4]) was 10%; in assay [2] (setting [7]), 90%.
On to `CCN(CCC(=O)c1cccnc1)Cc1ccccc1` [Example 144, 2-(N-benzylethyl)aminoethyl-3-pyridylketone], for which the inhibition at 10 µM was 0% in assay [1] (setting [3]) and 30% in assay [2] (setting [5]). The values for the inhibition at 30 µM in assay [1] (setting [3]) and in assay [2] (setting [6]) were 0% and 40%, respectively. Moreover, the inhibition at 100 µM is 0% in assay [1] (setting [4]) and 50% in assay [2] (setting [7]).
In the case of `Cc1ccc(C(=O)CCN(CCO)CCO)o1` [Example 145, 2-(N-bishydroxyethyl)aminoethyl-5-methyl-2-furylketone], the results for the inhibition at 10 µM in assay [1] (setting [3]) and in assay [2] (setting [5]) were 0% and 50%, respectively. In addition, the results for the inhibition at 30 µM in assay [1] (setting [3]) and in assay [2] (setting [6]) were 10% and 30%, respectively. Moreover, the inhibition at 100 µM in assay [1] (setting [4]) was 20%; in assay [2] (setting [7]) it was 30%.
Regarding `Cc1ccc(C(=O)CCN(CCO)C(C)C)o1` [Example 146, 2-(N-isopropylhydroxyethyl)aminoethyl-5-methyl-2-furylketone], the values for the inhibition at 10 µM in assay [1] (setting [3]) and in assay [2] (setting [5]) were 0% and 50%, respectively. The inhibition at 30 µM in assay [1] (setting [3]) amounted to 0%; in assay [2] (setting [6]), 30%. The inhibition at 100 µM came out at 0% in assay [1] (setting [4]) and 90% in assay [2] (setting [7]).
With `O=C(CCN(CCO)CCO)c1ccc2ccccc2c1` [Example 147, 2-(N-bishydroxyethyl)aminoethyl-2-naphthylketone], the values for the inhibition at 10 µM in assay [1] (setting [3]) and in assay [2] (setting [5]) were 0% and 20%, respectively. The inhibition at 30 µM came out at 0% in assay [1] (setting [3]) and 60% in assay [2] (setting [6]). Also, the inhibition at 100 µM is 0% in assay [1] (setting [4]) and 90% in assay [2] (setting [7]).
Regarding `COc1ccc(C(=O)CCN(CCO)CCO)cc1` [Example 148, 2-(N-bishydroxyethyl)aminoethyl-4-methoxyphenylketone], the results for the inhibition at 10 µM in assay [1] (setting [3]) and in assay [2] (setting [5]) were 0% and 20%, respectively. For the same molecule, the inhibition at 30 µM in assay [1] (setting [3]) was 0%; in assay [2] (setting [6]), 30%. Also, the inhibition at 100 µM in assay [1] (setting [4]) was 0%; in assay [2] (setting [7]), 90%.
Turning to `O=C(CCN(CCO)CCO)c1cccs1` [Example 149, 2-(N-dihydroxyethyl)aminoethylthiophenylketone], the inhibition at 10 µM in assay [1] (setting [3]) was found to be 0%; in assay [2] (setting [5]), 20%. Further, the inhibition at 30 µM in assay [1] (setting [3]) was found to be 0%; in assay [2] (setting [6]) it was 20%. For the same molecule, the inhibition at 100 µM was 0% in assay [1] (setting [4]) and 80% in assay [2] (setting [7]).
In the case of `O=C(CCN(CCO)CCO)c1cccnc1` [Example 150, 2-(N-bishydroxyethyl)aminoethyl-3-pyridylketone], the inhibition at 10 µM turned out to be 0% in assay [1] (setting [3]) and 30% in assay [2] (setting [5]). For the same molecule, the inhibition at 30 µM came out at 0% in assay [1] (setting [3]) and 20% in assay [2] (setting [6]). The figures for the inhibition at 100 µM in assay [1] (setting [4]) and in assay [2] (setting [7]) were 10% and 50%, respectively.
On to `CC(C)N(CCO)CCC(=O)c1cnccn1` [Example 151, 2-(N-isopropylhydroxyethyl)aminoethyl-2-pyrazylketone], for which the inhibition at 10 µM worked out at 0% in assay [1] (setting [3]) and 20% in assay [2] (setting [5]). For the same molecule, the results for the inhibition at 30 µM in assay [1] (setting [3]) and in assay [2] (setting [6]) were 0% and 20%, respectively. For the same molecule, the inhibition at 100 µM in assay [1] (setting [4]) stood at 0%; in assay [2] (setting [7]), 50%.
Regarding `Cc1ccc(C(=O)CCNCc2ccccc2)o1` [Example 152, 2-(N-benzyl)aminoethyl-5-methyl-2-furylketone], the inhibition at 10 µM in assay [1] (setting [3]) came out at 0%; in assay [2] (setting [5]), 20%. For the same molecule, the inhibition at 30 µM in assay [1] (setting [3]) and in assay [2] (setting [6]) was 10% in each case. Moreover, the inhibition at 100 µM in assay [1] (setting [4]) and in assay [2] (setting [7]) was 30% each time.
Regarding `CC(C)N(CCO)CCC(=O)c1ccco1` [Example 153, 2-(N-hydroxyethylisopropyl)aminoethyl-2-furylketone], the inhibition at 10 µM in assay [1] (setting [3]) came to 0%. For the same molecule, in assay [1] (setting [3]), the inhibition at 30 µM was determined as 0%. The results for the IC50 in assay [1] (setting [8]) and in assay [2] (setting [8]) were more than 100 µM and 20 µM, respectively. Besides, in assay [1] (test compound 100 μmol, CHO cells, thapsigargin), the “SOCE level (percentage of inhibition)” value is 10%. Also, the inhibition at 20 µM in assay [2] (Cricetulus griseus, CHO, test compound 20 μmol, CHO cells, 10 μM ATP, read-out: IICR level (percentage of inhibition)) is 50%. Moreover, the “IICR level (percentage of inhibition)” value in assay [2] (test compound 30 μmol, CHO cells, 10 μM ATP) stood at 60%; in assay [2] (test compound 100 μmol, CHO cells, 10 μM ATP), 80%.
As for `CC(C)N(CCO)CCC(=O)c1ccccn1` [Example 154, 2-(N-hydroxyethylisopropyl)aminoethyl-2-pyridylketone], the inhibition at 10 µM was 0% in assay [1] (setting [3]) and 40% in assay [2] (setting [5]). Moreover, the results for the inhibition at 30 µM in assay [1] (setting [3]) and in assay [2] (setting [6]) were 0% and 20%, respectively. Moreover, the inhibition at 100 µM is 0% in assay [1] (setting [4]) and 80% in assay [2] (setting [7]).
Regarding `CC(C)N(CCO)CCC(=O)c1ccncc1` [Example 155, 2-(N-hydroxyethylisopropyl)aminoethyl-4-pyridylketone], the inhibition at 10 µM in assay [1] (setting [3]) came to 0%; in assay [2] (setting [5]), 20%. In addition, the inhibition at 30 µM in assay [1] (setting [3]) was determined as 0%; in assay [2] (setting [6]), 50%. Moreover, the inhibition at 100 µM in assay [1] (setting [4]) came out at 0%; in assay [2] (setting [7]) it was 80%.
For the molecule `CC(C)N(CCO)CCC(=O)c1nccs1` [Example 156, 2-(N-hydroxyethylisopropyl)aminoethyl-2-thiazolylketone], the results for the inhibition at 10 µM in assay [1] (setting [3]) and in assay [2] (setting [5]) were 0% and 20%, respectively. For the same molecule, the inhibition at 30 µM came out at 10% in assay [1] (setting [3]) and 30% in assay [2] (setting [6]). Moreover, the values for the inhibition at 100 µM in assay [1] (setting [4]) and in assay [2] (setting [7]) were 20% and 60%, respectively.
For the molecule `CC(CN(CCO)C(C)C)C(=O)c1ccc(F)cc1` (centres unmarked) [Example 157, 1-methyl-2-(N-hydroxyethylisopropyl)aminoethyl-4-fluorophenylketone], the inhibition at 10 µM in assay [1] (setting [3]) and in assay [2] (setting [5]) was 0% throughout. Moreover, the inhibition at 30 µM in assay [1] (setting [3]) and in assay [2] (setting [6]) was 0% in each case. Also, the inhibition at 100 µM in assay [1] (setting [4]) and in assay [2] (setting [7]) was 0% in each case.
For the molecule `CC(C)N(CCO)CCC(=O)c1cccnc1` [Example 158, 2-(N-isopropylhydroxyethyl)aminoethyl-3′-pyridylketone], the inhibition at 10 µM was 0% in assay [1] (setting [3]) and 30% in assay [2] (setting [5]). For the same molecule, the inhibition at 30 µM in assay [1] (setting [3]) turned out to be 0%; in assay [2] (setting [6]) it was 20%. For the same molecule, the values for the inhibition at 100 µM in assay [1] (setting [4]) and in assay [2] (setting [7]) were 0% and 20%, respectively.
With `CC(CN(CCO)Cc1ccccc1)C(=O)c1ccc(F)cc1` (centres unmarked) [Example 159, 2-(N-hydroxyethylbenzyl)amino-1-methylethyl-4-fluorophenylketone], the inhibition at 10 µM in assay [1] (setting [3]) and in assay [2] (setting [5]) was 0% each time. The inhibition at 30 µM in assay [1] (setting [3]) and in assay [2] (setting [6]) was 0% each time. In addition, the inhibition at 100 µM in assay [1] (setting [4]) and in assay [2] (setting [7]) was 20% each time.
On to `CC(CN(CCO)CCO)C(=O)c1ccc(F)cc1` (centres unmarked) [Example 160, 2-(N-bis(hydroxyethyl))amino-1-methylethyl-4-fluorophenylketone], for which the inhibition at 10 µM in assay [1] (setting [3]) and in assay [2] (setting [5]) was 0% in each case. The results for the inhibition at 30 µM in assay [1] (setting [3]) and in assay [2] (setting [6]) were 20% and 0%, respectively. For the same molecule, the inhibition at 100 µM in assay [1] (setting [4]) amounted to 60%; in assay [2] (setting [7]) it was 20%.
Regarding `CC(CN(CCO)C(C)(C)C)C(=O)c1ccc(F)cc1` (centres unmarked) [Example 161, 2-(N-hydroxyethyl-t-butyl)amino-1-methylethyl-4-fluorophenylketone], the inhibition at 10 µM in assay [1] (setting [3]) and in assay [2] (setting [5]) was 0% in each case. The inhibition at 30 µM in assay [1] (setting [3]) and in assay [2] (setting [6]) was 0% each time. Further, the inhibition at 100 µM in assay [1] (setting [4]) and in assay [2] (setting [7]) was 20% throughout.
Take `CC(CN(Cc1ccccc1)C(C)(C)C)C(=O)c1ccc(F)cc1` (centres unmarked) [Example 162, 2-(N-t-butylbenzyl)amino-1-methylethyl-4-fluorophenylketone]: the inhibition at 10 µM in assay [1] (setting [3]) and in assay [2] (setting [5]) was 0% each time. The inhibition at 30 µM in assay [1] (setting [3]) and in assay [2] (setting [6]) was 0% in each case. Moreover, the inhibition at 100 µM was 40% in assay [1] (setting [4]) and 0% in assay [2] (setting [7]).
